We go through 23 compounds from patent US7563787B2, “Substituted pyrazole compounds” (Miikana Therapeutics, Inc., priority 2005, dated 2009).

Assay [1] addresses T1, recombinant Aurora A (Homo sapiens, UniProt O14965).
T1 construct: purchased Upstate, Lake Placid, N.Y
T1 sequence (O14965 1-403): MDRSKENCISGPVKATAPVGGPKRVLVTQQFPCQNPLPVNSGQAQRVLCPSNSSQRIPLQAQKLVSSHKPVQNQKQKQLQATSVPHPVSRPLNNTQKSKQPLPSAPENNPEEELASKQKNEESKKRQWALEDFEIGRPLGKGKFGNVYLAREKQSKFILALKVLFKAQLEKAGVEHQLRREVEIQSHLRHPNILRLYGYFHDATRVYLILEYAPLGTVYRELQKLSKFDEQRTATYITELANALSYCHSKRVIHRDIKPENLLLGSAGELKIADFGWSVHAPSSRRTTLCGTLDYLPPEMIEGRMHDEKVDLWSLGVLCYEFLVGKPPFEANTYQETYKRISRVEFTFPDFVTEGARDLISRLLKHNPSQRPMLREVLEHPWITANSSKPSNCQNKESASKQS
Put plainly: Aurora A (Aurora 2) Inhibition Assay (Z'-Lyte). Format: biochemical. Conditions: 100 μM compound; ATP 10 μM; 1 h. The method, then:
Compounds were tested for their potency against recombinant Aurora A (Upstate, Lake Placid, N.Y.) using the PanVera Z'-Lyte kinase assay kit-Ser/[…] peptide (Invitrogen, Carlsbad, Calif.). […] Assays were carried out in half-area 96-well white polystyrene assay plates (Corning, Corning, N.Y.) in a final volume of 20 μl. The reaction was allowed to proceed for 1 h at room temperature in the dark, at which point the development reagent and stop reagent were added according to the manufacturer's instructions. Coumarin (Ex. 400 nm, Em. 465 nm) and fluorescein (Ex. 400 nm, Em. 565 nm) fluorescence values were measured on a SpectraFluor Plus plate reader (Tecan, Durham, N.C.). The emission ratio (coumarin/fluorescein) was determined and used to calculate the percent phosphorylation for each well. […] Typically 20-40% of the substrate was phosphorylated in wells without inhibitor. Dose-response curves of relative Aurora A activity vs. inhibitor concentration were plotted with Grafit (Erithacus Software, Horley, Surrey, UK).

Assay [2] deals with HCT-116 cell growth. Put plainly: Whole Cell Cytotoxicity Assay: Sulforhodamine B. Format: cell-based, Human. As to conditions: 100 μM compound, 96 hours, SRB staining; for inhibition at 100 µM: Homo sapiens, HCT-116. Here is the method:
Human tumor-derived cell lines, HCT116 or MCF7 (ATCC) were plated in a 96 well plate in DMEM containing 10% fetal bovine serum and 2 mM L-glutamine at a density of 500 HCT116 cells or 1,000 MCF7 cells per well and incubated at 37° C., 5% CO2, for 24 hours prior to the addition of experimental compounds. Compounds were added using the dilution series indicated to duplicate plates and the cells were incubated in media plus compound for 96 hours. An additional plate was fixed in 10% TCA at the time of the addition of compound to provide a measurement of the cell population at time zero, the time of drug addition. Following the 96 hour incubation, cells were fixed in situ by gently aspirating off the culture media and then adding 50 ul of ice cold 10% TCA per well and incubation at 4° C. for 60 minutes. The plates were washed with tap water five times and allowed to air dry for 5 minute. 50 ul of a 0.4% (w/v) Sulforhodamine B solution in 1% (v/v) acetic acid was added per well and the cells were incubated for 30 minutes at room temperature. Following staining, plates were washed four times with 1% acetic acid to remove any unbound dye and then allowed to air dry for 5 minutes. The stain was solubilized with 100 ul of 10 mM Tris pH 10.5 per well and placed on an orbital rotator for 5 minutes. The absorbance was read at 570 nm. Percentage growth was calculated using the absorbance readings from the time zero plate (Tz) and the dilution series plate […] which included a column of cells grown in media without compound as a control (C) using the formulas: [(Ti−Tz)/(C−Tz)]×100 for concentrations for which Ti>/=Tz [(Ti−Tz)/Tz]×100 for concentrations for which Ti<Tz.
Three dose response parameters were calculated for each experimental agent. Growth inhibition of 50% (GI50) was calculated from [(Ti−Tz)/(C−Tz)]×100=50, which was the drug concentration resulting in a 50% reduction in the net protein increase (as measured by SRB staining) in control cells during the drug incubation. The drug concentration resulting in total growth inhibition (TGI) was calculated from Ti=Tz. The LC50 (concentration of drug resulting in a 50% reduction in the measured protein at the end of the drug treatment as compared to that at the beginning) indicating a net loss of cells following treatment was calculated from [(Ti−Tz)/Tz]×100=−50. Values are calculated for each of these three parameters if the level of activity was reached; however, if the effect was not reached or was exceeded, the value for that parameter is expressed as greater or less than the maximum or minimum concentration tested.
For orientation: Sulforhodamine B stains cellular protein and so reports cell mass.

One may read the inhibition as how much of the control response was suppressed.

Turning to “2-(4-methoxystyryl)-N-(5-methyl-1H-pyrazol-3-yl)-6-(4-methylpiperazin-1-yl)pyrimidin-4-amine [Example 161]”, in assay [1], the “% Inhibition of Aurora A @ 100 μM” value was determined as 100%. Moreover, the “% Inhibition of HCT-116 cell growth @ 100 μM” value in assay [2] came out at 93%.

For the compound `Cc1cc(Nc2nc(/C=C/c3ccccc3)nc(N3CCN(C)CC3)c2[N+](=O)[O-])[nH]n1` [Example 4, 6-(4-methylpiperazin-1-yl)-N-(3-methyl-1H-pyrazol-5-yl)-5-nitro-2-[(E)-2-phenylvinyl]pyrimidin-4-amine], the inhibition at 100 µM in assay [1] turned out to be 91%; in assay [2] it was 87%. With `Cc1cc(Nc2nc(/C=C/c3ccccc3)nc(Nc3cc(C)n[nH]3)c2N)[nH]n1` [Example 11], the inhibition at 100 µM in assay [1] was determined as 98%; in assay [2] it was 99%.

As for `Cc1cc(Nc2nc(/C=C/c3ccccc3)nc(N3CCOCC3)c2N)[nH]n1` [Example 12, N-(3-methyl-1H-pyrazol-5-yl)-6-(morpholin-4-yl)-2-[(E)-2-phenylvinyl]pyrimidin-4,5-diamine], the inhibition at 100 µM in assay [1] was determined as 100%; in assay [2] it was 99%. In the case of `Cc1cc(Nc2nc(/C=C/c3ccccc3)nc(N3CCNCC3)c2N)[nH]n1` [Example 13, N-(3-methyl-1H-pyrazol-5-yl)-6-(piperazin-1-yl)-2-[(E)-2-phenylvinyl]pyrimidin-4,5-diamine], the inhibition at 100 µM in assay [1] amounted to 93%. Consider `Cc1cc(Nc2nc(/C=C/c3ccccc3)nc(N3CCCCC3)c2N)[nH]n1` [Example 14, N-(3-methyl-1H-pyrazol-5-yl)-6-(piperidin-1-yl)-2-[(E)-2-phenylvinyl]pyrimidin-4,5-diamine], for which the inhibition at 100 µM in assay [1] came out at 98%.

Consider `Cc1cc(Nc2nc(/C=C/c3ccccc3)nc(N3CCCC3)c2N)[nH]n1` [Example 15, N-(3-methyl-1H-pyrazol-5-yl)-6-(pyrrolidin-1-yl)-2-[(E)-2-phenylvinyl]pyrimidin-4,5-diamine], for which the inhibition at 100 µM in assay [1] is 100%; in assay [2], 91%.

Consider `CCOC(=O)c1nc(/C=C/c2ccccc2)nc(Nc2cc(C)n[nH]2)c1[N+](=O)[O-]` [Example 17, ethyl 6-[(3-methyl-1H-pyrazol-5-yl)amino]-5-nitro-2-[(E)-2-phenylvinyl]pyrimidine-4-carboxylate], for which the inhibition at 100 µM came to 62% in assay [1] and 93% in assay [2].

Regarding `CCOC(=O)c1nc(/C=C/c2ccc(Cl)cc2)nc(Nc2cc(C)n[nH]2)c1N` [Example 19, ethyl 5-amino-2-[(E)-2-(4-chlorophenyl)vinyl]-6-[(3-methyl-1H-pyrazol-5-yl)amino]pyrimidine-4-carboxylate], the inhibition at 100 µM in assay [1] worked out at 99%; in assay [2] it was 96%.

Turning to `CCOC(=O)c1nc(/C=C/c2ccc(C(F)(F)F)cc2)nc(Nc2cc(C)n[nH]2)c1N` [Example 20, ethyl 5-amino-6-[(3-methyl-1H-pyrazol-5-yl)amino]-2-{(E)-2-[4-(trifluoromethyl)phenyl]vinyl}pyrimidine-4-carboxylate], the inhibition at 100 µM was 77% in assay [1] and 97% in assay [2]. In the case of `CCOC(=O)c1nc(/C=C/c2ccc(C)cc2)nc(Nc2cc(C)n[nH]2)c1N` [Example 21, ethyl 5-amino-2-[(E)-2-(4-methylphenyl)vinyl]-6-[(3-methyl-1H-pyrazol-5-yl)amino]pyrimidine-4-carboxylate], the figures for the inhibition at 100 µM in assay [1] and in assay [2] were 100% and 93%, respectively.

As to `CCOC(=O)c1nc(/C=C/c2cccc(F)c2)nc(Nc2cc(C)n[nH]2)c1N` [Example 22, ethyl 5-amino-2-[(E)-2-(3-fluorophenyl)vinyl]-6-[(3-methyl-1H-pyrazol-5-yl)amino]pyrimidine-4-carboxylate], the inhibition at 100 µM was determined as 97% in assay [1] and 85% in assay [2]. The corresponding values for `CCOC(=O)c1nc(/C=C/c2ccc(OC)cc2)nc(Nc2cc(C)n[nH]2)c1N` [Example 23, ethyl 5-amino-2-[(E)-2-(4-methoxyphenyl)vinyl]-6-[(3-methyl-1H-pyrazol-5-yl)amino]pyrimidine-4-carboxylate] are 99% and 91%. The corresponding values for `Cc1cc(Nc2nc(/C=C/c3ccccc3)nc(C(=O)OC3CCN(C)CC3)c2N)[nH]n1` [Example 24, 1-methylpiperidin-4-yl 5-amino-6-[(3-methyl-1H-pyrazol-5-yl)amino]-2-[(E)-2-phenylvinyl]pyrimidine-4-carboxylate] are 100% and 99%. The corresponding values for `Cc1cc(Nc2nc(/C=C/c3ccccc3)nc(C(=O)NCCN3CCOCC3)c2N)[nH]n1` [Example 25, N-(2-morphholin-4-ylethyl)-5-amino-6-[(3-methyl-1H-pyrazol-5-yl)amino]-2-[(E)-2-phenylvinyl]pyrimidine-4-carboxamide] are 100% and 95%. `Cc1cc(Nc2cc(Cl)nc(/C=C/c3ccccc3)n2)n[nH]1` [Example 34, 6-chloro-N-(3-methyl-1H-pyrazol-5-yl)-2-[(E)-2-phenylvinyl]pyrimidin-4-amine]: the inhibition at 100 µM in assay [1] is 99%; in assay [2] it was 98%. As to `COC(=O)c1ccc(/C=C/c2nc(Cl)c([N+](=O)[O-])c(Nc3cc(C)[nH]n3)n2)cc1` [Example 37, methyl 4-((E)-2-{4-chloro-6-[(3-methyl-1H-pyrazol-5-yl)amino]-5-nitropyrimidin-2-yl}vinyl)benzoate], in assay [1], the inhibition at 100 µM was determined as 80%. Still for that read-out and setting: next, `COC(=O)c1ccc(/C=C/c2nc(Nc3cc(C)[nH]n3)c([N+](=O)[O-])c(N3CCN(C)CC3)n2)cc1` [Example 38, methyl 4-((E)-2-{4-(4-methylpiperazin-1-yl)-6-[(3-methyl-1H-pyrazol-5-yl)amino]-5-nitropyrimidin-2-yl}vinyl)benzoate]: 99%. Take `COC(=O)c1ccc(/C=C/c2nc(Nc3cc(C)[nH]n3)c(N)c(N3CCN(C)CC3)n2)cc1` [Example 39, methyl 4-((E)-2-{5-amino-4-(4-methylpiperazin-1-yl)-6-[(3-methyl-1H-pyrazol-5-yl)amino]-pyrimidin-2-yl}vinyl)benzoate]: the figures for the inhibition at 100 µM in assay [1] and in assay [2] were 100% and 97%, respectively. As for `Cc1cc(Nc2cc(N3CCN(C)CC3)nc(/C=C/c3ccc(Cl)cc3)n2)n[nH]1` [Example 49, 2-(4-chlorostyryl)-N-(5methyl-1H-pyrazol-3-yl)-6-(4-methylpiperazin-1-yl)pyrimidin-4-amine], the results for the inhibition at 100 µM in assay [1] and in assay [2] were 100% and 75%, respectively. For `COc1cc(/C=C/c2nc(Nc3cc(C)[nH]n3)cc(N3CCN(C)CC3)n2)cc(OC)c1` [Example 50, 2-(3,5-dimethoxystyryl)-N-(5-methyl-1H-pyrazol-3-yl)-6-(4-methylpiperazin-1-yl)pyrimidin-4-amine], in that order: 100% and 98%.

For `Cc1ccc(/C=C/c2nc(Nc3cc(C)[nH]n3)c([N+](=O)[O-])c(N3CCN(C)CC3)n2)cc1` [Example 169], in assay [1], the inhibition at 100 µM was 95%. The same measure, in the same setting: next, `Cc1cc(Nc2nc(/C=C/c3ccc(Cl)cc3)nc(N3CCN(C)CC3)c2[N+](=O)[O-])n[nH]1` [Example 171]: 89%.
